{"source": "patent US11427808B2", "about": "“Method for serum-free culture of chondrocytes and serum-free culture medium” (Regenesis Science Co., Ltd., priority 2014, dated 2022)", "tested_on": "primary human chondrocytes", "assay": "serum-free culture of human chondrocytes, cell proliferation", "format": "cell-based", "details": "for proliferation of cultured chondrocytes (number of cells): 4th, 7th, 14th and 21st day", "experimental": "Primary human chondrocytes were isolated from a fresh sample of articular cartilage, and the sample was fractionated. The obtained fractionated sample was then immersed in a 0.1% to 0.3% collagenase solution, and subjected to enzymatic digestion at 37° C. for 4 to 5 hours. The obtained cells were collected by centrifugation for 5 minutes at 1,200 rpm. A mixture obtained by adding 100 ng/mL FGF, 0.5 μM SAG, 400 ng/mL HC, 5 ng/mL IGF, and 5 μg/mL insulin to DMEM medium was used as a culture medium. The cultured cells previously obtained were seeded at a density of 1000 cells/cm^2 and cultured in an environment of 37° C. and 5% CO2. A mixture obtained by adding 100 ng/mL FGF2, 0.5 μM SAG, 400 ng/mL HC, 5 ng/mL IGF and 5 μg/mL insulin to DMEM medium was used as a culture medium for subculture. The cultured cells in Example 1 were seeded at a density of 10000 cells/cm^2 and cultured in an environment of 37° C. and 5% CO2. In order to examine the optimum concentration of SAG added to a culture medium, the concentration of SAG in a serum-free culture medium was changed to 0.05 uM, 0.01 uM or 0.5 uM, and an influence on proliferation of cultured chondrocytes was examined. Specifically, chondrocytes prepared in the same procedure as in Example 1 were seeded at a density of 10000 cells/well, and the number of cells on the 4th, 7th, 14th and 21st day after seeding was measured. Because SAG is a very expensive reagent, it is preferred that SAG be able to be used at as low concentration as possible. […] Specifically, the concentration of SAG in a serum-free culture medium to which ITS had been added was changed to 0.01 uM, 0.05 uM, 0.1 uM or 0.5 uM, and the cultured chondrocytes were cultured, and the number of cells on the 4th, 7th, 14th and 21st day after seeding was measured. In order to further examine the effect of ITS and SAG on an increase in chondrocytes, an increase in chondrocytes was examined in treated sites to which both ITS and SAG were added (ITS+ 0.01 uM SAG, ITS+ 0.1 uM SAG), a treated site to which ITS was added alone (ITS+ SAG−), and a treated site to which ITS and SAG were not added (ITS− SAG−)."}
{"smiles": "O=C(O)c1ccccc1C(=O)Nc1ccc(-c2ccccc2)cc1", "note": "[kartogenin, 2-[(biphenyl-4-yl)carbamoyl] benzoic acid]", "values": [{"measurement": "effect on proliferation of chondrocytes", "setting": "ITS+ 1 uM Kartogenin", "value": "the effect on proliferation of chondrocytes was observed"}, {"measurement": "proliferation of chondrocytes", "setting": "kartogenin added in place of SAG", "value": "effective for the proliferation of chondrocytes"}]}
{"smiles": "CNC1CCC(N(Cc2cccc(-c3ccncc3)c2)C(=O)c2sc3ccccc3c2Cl)CC1", "note": "(stereo not drawn) [SAG]", "values": [{"measurement": "culture of chondrocytes", "setting": "Comparative Example 1: primary culture as Example 1 but DMEM medium not containing SAG, first to 5th day, FIG. 3", "value": "chondrocytes could not be effectively cultured in the state without SAG"}, {"measurement": "culture of chondrocytes", "setting": "Comparative Example 2: subculture as Example 2 but DMEM medium not containing SAG, first to 13th day, FIG. 7", "value": "chondrocytes could not be effectively cultured in the state which does not contain SAG"}, {"measurement": "effect on proliferation of chondrocytes", "setting": "ITS+ 0.01 uM SAG, ITS+ 0.1 uM SAG, FIG. 14", "value": "an obvious effect can be obtained by combining SAG"}, {"measurement": "proliferation of cultured chondrocytes (number of cells)", "setting": "SAG 0.01 uM to 0.5 uM added along with ITS, FIG. 13", "value": "an increase in chondrocytes was almost equally observed"}, {"measurement": "proliferation of cultured chondrocytes (number of cells)", "setting": "SAG 0.05 uM, 0.01 uM or 0.5 uM in serum-free culture medium, no ITS, FIG. 12", "value": "an obvious difference which had been expected was not observed"}]}
{"smiles": "O=C1O[C@H]([C@@H](O)CO)C(O)=C1O", "note": "[ascorbic acid]", "values": [{"measurement": "effect on culture of chondrocytes in a serum-free culture medium", "setting": "Example 1: 50 μg/mL ascorbic acid added on the 18th day of culture", "value": "very effective"}, {"measurement": "effect on culture of chondrocytes in a serum-free culture medium", "setting": "Example 2 (subculture): 50 μg/mL ascorbic acid added on the 18th day of culture", "value": "very effective"}]}
